{
  "source": "paper PMC12680861",
  "about": "“Comparative analysis of LJ-4378 and tirzepatide in mouse models of obesity and weight regain” (Archives of Pharmacal Research, 2025)",
  "key": {"plasma protein [1]": {"system": "plasma protein", "test": "Plasma protein binding, Rapid Equilibrium Dialysis (RED)", "assay_type": "in vitro ADME, rat", "settings": "10 μM, 37 °C, 4 h", "experimental": "(§1) The plasma protein binding of LJ-4378 was evaluated using the Rapid Equilibrium Dialysis (RED) method with 100% plasma from human (Biochemed, BC22089NCP), rat (Innovative, IRT-N), and mouse (Biochemed, 029-APSC-MP), all treated with sodium citrate as an anticoagulant. The RED device (ThermoFisher Scientific, #89809) and reusable base plate (ThermoFisher Scientific, #89811) were used with an 8 K MWCO membrane. Test compounds were added to plasma at a final concentration of 10 μM and dialyzed against phosphate-buffered saline (PBS, pH 7.4; Hyclone, #SH30256.01) at 37 °C for 4 h. After incubation, equal volumes of plasma and PBS samples were mixed with blank PBS and blank plasma, respectively, followed by the addition of acetonitrile containing chlorpropamide (TRC, C424800) as the internal standard. […] All measurements were performed in duplicate with a deviation of less than 15% between replicates. The free fraction (% Free) was calculated as (concentration in buffer chamber/concentration in plasma chamber) × 100, and the bound fraction (% Bound) was obtained by subtracting % Free from 100. In cases where measurements were unstable, deviations greater than 15% were allowed."}, "plasma protein [2]": {"system": "plasma protein", "test": "Plasma protein binding, Rapid Equilibrium Dialysis (RED)", "assay_type": "in vitro ADME, mouse", "settings": "10 μM, 37 °C, 4 h", "experimental": "as §1"}, "Plasma stability assay": {"test": "Plasma stability assay", "assay_type": "in vitro ADME, rat", "settings": "37 °C, 30 min", "experimental": "The plasma stability of LJ-4378 was evaluated using 100% plasma obtained from human (Biochemed, BC22089NCP, sodium citrate), rat (Innovative, IRT-N, sodium citrate), and mouse (Biochemed, 029-APSC-MP, sodium citrate). 10 Μm of LJ-4378 was added to the plasma, and samples were incubated at 37 °C for 0, 30, and 120 min. At each time point, an aliquot of the plasma was removed and mixed with acetonitrile containing the internal standard, chlorpropamide (TRC, C424800). […] The supernatant was injected into the LC–MS/MS system for quantification of the remaining compound. Analysis was performed using a Nexera XR system (Shimadzu, Japan) with a TSQ Vantage mass spectrometer (Thermo, USA). […] Data acquisition was conducted in MRM mode using Xcalibur software (version 4.4). All experiments were performed in duplicate with a deviation within 15%, and the percentage of compound remaining (% Remaining) at each time point was calculated relative to the non-incubated control sample. For quality control, procaine and enalapril (each at 10 μM) were used as reference compounds and were confirmed to fall within acceptable ranges."}, "[3]": {"test": "Steady state tissue partition coefficient after I.V. infusion", "assay_type": "in vivo, SD rats", "experimental": "In this study, steady state tissue partition coefficients ( KP,T , i.e., the ratio of tissue to plasma concentrations in steady state) Eq. (1) were determined for LJ-4378 in SD rats. […] Therefore, to ensure a steady state condition, rats received I.V. infusion (i.e., infusion solution, 5% DMSO in normal saline; delivery rate, 10 µL/min; infusion rate, 0.31 µg/µL; total dose of LJ-4378, 0.837 mg per rat) for 270 min (i.e., the time exceeding five times the half-life). Blood samples (~ 150 µL) were collected from the animal at every 10 min from 240 to 270 min for the confirmation of the steady state of the compound. At completion of the last blood collection, rats were sacrificed by decapitation, and four representative tissues (i.e., gonadal adipose, brain, lung, and liver) were harvested. Tissues were then washed four times with ice-Dulbecco’s phosphate-buffered saline (DPBS), weighed, and homogenized in two volumes of DPBS using an Ultra Turrax homogenizer (IKA, Staufen, Germany). Aliquots (50 µL) of plasma and tissue homogenate were mixed with 200 µL ice-cold acetonitrile containing propranolol (100 ng/mL, internal standard). After vortex mixing for 10 min, the mixture was centrifuged at 16,100 × g for 5 min at 4 °C, and 10 µL of the supernatant was injected directly onto the HPLC–MS/MS system. The concentration of LJ-4378 in the biological sample was quantified on an Agilent 1200 HPLC coupled to an API 3200 mass spectrometer with a Phenomenex Luna C18(2) column (3 µm, 100 Å, 50 × 2 mm). Chromatography was performed under isocratic conditions with 80% acetonitrile containing 0.1% formic acid (mobile phase A) and 20% water containing 0.1% formic acid (mobile phase B) at a flow rate of 0.4 mL/min.\nWhen calculating KP,T for LJ-4378 in […], Eq. (1) was used:1 KP,T=CT,ss/Cp,ss where CT,ss and Cp,ss represented the tissue and plasma concentrations at 270 min after the initiation of LJ-4378 infusion. In addition, under the free-drug hypothesis, the KP,T can be expressed as the ratio of the unbound fractions in plasma ( fup ) and tissue ( fu,T ) [Eq. (2)]. Given similar interspecies values of tissue unbound fraction (Poulin and Theil [2000]), the rat KP,T values were extrapolated to those in mice and humans using the following Eq. (3):2 KP,T=fup/fu,T 3 KP,T,extrapolated=KP,T,rat×fup/fup,rat"}, "[4]": {"settings": "SD rats (observed), I.V. infusion 270 min"}},
  "data": [
    {"compound": "CCCCC#Cc1nc(N)c2ncn([C@@H]3SC[C@@H](O)[C@H]3O)c2n1", "note": "[LJ-4378]", "values": [
      {"measurement": "Plasma free fraction (% Free), Rat", "setting": "plasma protein [1]", "result": 29.7, "unit": "%"},
      {"measurement": "Plasma free fraction (% Free), Mouse", "setting": "plasma protein [2]", "result": 12.7, "unit": "%"},
      {"measurement": "% Remaining compound, Rat plasma 30 min", "setting": "Plasma stability assay", "result": "> 100", "unit": "%"},
      {"measurement": "Steady state tissue partition coefficient (KP,T), Adipose", "setting": "[3]; [4]", "result": "0.0843 ± 0.00653"},
      {"measurement": "Steady state tissue partition coefficient (KP,T), Liver", "setting": "[3]; [4]", "result": "0.440 ± 0.194"},
      {"measurement": "Steady state tissue partition coefficient (KP,T), Lungs", "setting": "[3]; [4]", "result": "0.228 ± 0.0793"},
      {"measurement": "partitioning in adipose tissue relative to brain", "setting": "[3]; SD rats, steady state", "result": "over four-fold higher partitioning"}
    ]}
  ]
}
